In data set [1] the test system is HepG2 cells. Kind of data set: Testing of TC/TG in HepG2 cells incubated with FFA (oleic acid and palmitate). The data set is classed as cell-based, human. The following applies: 24 h; for reduction of the increase in TG level of HepG2 cell induced by oleic acid and palmitate / reduction of the increase in TC level of HepG2 cell induced by oleic acid and palmitate: 20 μM compound, 0.5 mmol/L FFA; for reduction of the increase in TG level of HepG2 cell induced by oleic acid and palmitate: FIG. 1A; for reduction of the increase in TC level of HepG2 cell induced by oleic acid and palmitate: FIG. 1B. Here is the method: Cell TC/TG was tested using Nanjing Jiancheng TG test kit and TC test kit. HepG2 cells were incubated with 0.5 mmol/L FFA (oleic acid and palmitate mixed at a ratio of 2:1) and a solvent or different concentrations (20 μM, 40 μM, 80 μM) of compounds for 24 h. The culture medium was discarded and the cells were washed once with 0.01 M PBS (pH 7.4). The cells were scraped off with a cell scraper. 2-5 mL of 0.01 M PBS (pH 7.4) was then added. The cell suspension was collected and then centrifuged at 1000×g, 4° C. for 10 min. According to the ratio of 10^6 cells/300-500 μL of homogenization medium, isopropyl alcohol was added for mechanical homogenization, such that the cells were thoroughly disrupted until there was no obvious cell precipitation. The cell solution was centrifuged at 10000×g, 4° C. for 10 min. The supernatant was taken and placed on ice for testing. 2.5 μL of distilled water, standard products or samples were well mixed with […] respectively. After incubation at 37° C. for 10 min, the absorbance value of each well was tested with a microplate reader at 510 nm. Calculation formula for TC/TG concentration: sample concentration (mmol/g protein)=(ODsample−ODblank)/(ODstandard−ODblank)×standard product concentration (mmol/L)/protein concentration (g protein/L).
Preparation of protein standard: a. 1.2 mL of standard protein solution was added to a tube of protein standard (30 mg BSA), and a 25 mg/mL standard protein solution was obtained after the protein standard was thoroughly dissolved. b. An appropriate amount of 25 mg/mL protein standard was diluted to the final concentration of 0.5 mg/mL. Preparation of BCA working solution: according to the number of samples, reagent A for the BCA working solution and reagent B for BCA working solution (v/v: 50:1) were well mixed to prepare an appropriate amount of BCA working solution. Determination of protein concentration: a. 0, 1, 2, 4, 8, 12, 16, and 20 μL of the protein standard were respectively added into the standard wells of the 96-well plate, and the diluted standard solution was then added to make up to 20 μL, which is equivalent to obtaining standard concentrations of 0, 0.025, 0.05, 0.1, 0.2, 0.3, 0.4, and 0.5 mg/mL, respectively. b. An appropriate volume of sample was added to the sample wells of the 96-well plate. If the sample is less than 20 μL, the diluted standard solution should be added to make up to 20 μL. c. […] was added to each well and the well plate was set still at 37° C. for 20-30 min. d. The absorbance at A562 nm was determined with a microplate reader. e. The protein concentrations of the samples were calculated according to the standard curves and the sample volumes used.

Data set [2] concerns the target T1, FXR (Homo sapiens, UniProt Q96RI1).
T1 construct: 5 μL of 20 nM FXR-LBD Complete Coregulator buffer G; purchased ThermoFisher PV4833
T1 sequence (Q96RI1 262-486 limits assumed): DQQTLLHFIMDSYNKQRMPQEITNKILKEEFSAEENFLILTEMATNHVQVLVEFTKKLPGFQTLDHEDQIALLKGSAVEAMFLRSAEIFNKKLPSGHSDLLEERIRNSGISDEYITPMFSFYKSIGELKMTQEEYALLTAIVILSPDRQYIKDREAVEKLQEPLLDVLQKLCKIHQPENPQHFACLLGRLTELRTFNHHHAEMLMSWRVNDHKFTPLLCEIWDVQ
Kind of data set: FXR antagonist screening by TR-FRET (LanthaScreen TR-FRET FXR co-activation assay kit). The format is biochemical. The following applies: Table 1.1, FXR antagonistic activity; TR-FRET with CDCA; geometric means of at least two independent runs. An outline of the steps: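 FXR-LBD (20 nM working solution) mixed with compound, CDCA (200 μM working solution) as agonist, Fluorescein-SRC2-2 and Tb-anti-GST antibody in Coregulator buffer G; 10 h at room temperature. Coactivator recruitment read by TR-FRET, triplicate wells.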

Data set [3] in a line: Cell proliferation inhibition (cytotoxicity) by MTT assay, HEK293A. The following applies: human, HEK293A cells, 48 hours after administration, average of three independent repeated experiments. The data set is classed as cell-based. The procedure:
The human embryonic kidney cell line HEK293A was subcultured in a medium containing penicillin (final concentration: 100 U/mL), streptomycin (final concentration: 100 μg/mL) and 10% FBS, in a humidified atmosphere of 95% air and 5% carbon dioxide at a constant temperature of 37° C. When the cells were 90% confluent, the old culture medium was discarded and the cells were washed twice with 2 mL of PBS. After the PBS was discarded, 2 mL of 0.25% trypsin-0.25% EDTA mixed digestion solution was added. When it was observed under a microscope that the cells became round, 2 mL of complete culture medium was added quickly to stop the digestion. The cell solution was pipetted gently to collect cells. The cells were centrifuged at 800 rpm, 4° C. for 5 min, the supernatant was discarded, the cells were resuspended in complete culture medium and cultured in bottles, and the medium was changed every other day.
(§1) The cell proliferation inhibition ability of compounds was tested by MTT assay. HepG2 and HEK293 cells were inoculated in a 96-well plate at a density of 30%. After incubation for 18 h to allow the cells to adhere, the original culture medium was removed, a given concentration of the compound to be tested was added to each well, and an equal amount of DMSO was added to the control group. Three replicate wells were set up for each compound. 48 hours after administration, cell viability was tested by MTT assay. The blank group was the wells where no cells were added, and then its OD value was read at 490 nm with a microplate reader. Calculation formula for cell viability: cell viability (%)=(ODto be tested−ODblank)/(ODcontrol−ODblank)×100.

Data set [4] in a line: Cell proliferation inhibition (cytotoxicity) by MTT assay, HepG2. The following applies: human, HepG2 cells, 48 hours after administration, average of three independent repeated experiments. The format is cell-based. Here is the method:
The human liver cancer cell line HepG2 was subcultured in a DMEM medium containing penicillin (final concentration: 100 U/mL), streptomycin (final concentration: 100 μg/mL) and 10% FBS under the same conditions as those in the subculture of HEK293A.
as §1

The record followed here is patent US20240239775A1, “FXR REGULATOR, PREPARATION METHOD THEREFOR, PHARMACEUTICAL COMPOSITION THEREOF AND USE THEREOF” (QINGDAO RUIJI MEDICAL TECHNOLOGY CO., LTD., priority 2021, published 2024).

Some results are limits rather than exact numbers.

`CC(=O)C1=CC[C@H]2[C@@H]3CC=C4C[C@@H](O)CC[C@]4(C)[C@H]3CC[C@]12C` [Centatin, 1-((3S, 8R, 9S, 10R, 135, 14S)-3-hydroxy-10,13-dimethyl-2,3,4,7,8,9,10,11,12,13,14,15-dodecahydro-1H-cyclopenta[a]phenanthren-17-yl)ethan-1-one]: in data set [1], the “reduction of the increase in TG level of HepG2 cell induced by oleic acid and palmitate” value was “significantly reduce”; the “reduction of the increase in TC level of HepG2 cell induced by oleic acid and palmitate” value is “significantly reduce”.
Regarding `Cc1c(C(=O)O)oc2ccc(S(=O)(=O)N(CCc3ccccc3)c3ccc(Cc4ccccc4)cc3)cc12` [Example F27-S11, 3-methyl-5-(N-(4-benzylphenyl)-N-phenethylsulfamoyl)benzofuran-2-carboxylic acid], the melting point lay in the range of 301 to 302 °C. This compound came in with an IC50 in data set [2] of 0.1 to 10 µM. Further, the CC50 at 48 h in data set [3] is > 160 µM. Besides, the CC50 at 48 h in data set [4] was > 160 µM.
As to `Cc1c(C(=O)O)oc2ccc(S(=O)(=O)N(CCc3ccccc3)c3ccc(Oc4ccccc4)cc3)cc12` [Example F27-S12, 3-methyl-5-(N-(4-phenoxyphenyl)-N-phenethylsulfamoyl)benzofuran-2-carboxylic acid], the half-inhibitory concentration (IC50) in data set [2] fell in the range of 0.1 to 10 µM. The CC50 at 48 h in data set [3] and in data set [4] was > 160 µM throughout.
`Cc1c(C(=O)O)oc2ccc(S(=O)(=O)N(CCc3ccccc3)c3ccccc3N3CCN(C(=O)c4ccccc4)CC3)cc12` [Example F27-S96]: the melting point lay in the range of 128 to 129 °C. The compound further showed an IC50 in data set [2] of 0.1 to 10 µM. The CC50 at 48 h in data set [3] is > 160 µM. In addition, the CC50 at 48 h in data set [4] is > 160 µM. Besides, in data set [1], the “reduction of the increase in TG level of HepG2 cell induced by oleic acid and palmitate” value is on record as “significantly reduce”; the “reduction of the increase in TC level of HepG2 cell induced by oleic acid and palmitate” value is reported as “significantly reduce”. Also, in data set [1] (HepG2, 20 μM, 40 μM, 80 μM), the “inhibitory effect on TC, dose dependence” value is given as “dose-dependent to some extent” and the “inhibitory effect on TG, dose dependence” value is listed as “dose-dependent to some extent”.
As for `Cc1c(C(=O)O)oc2ccc(S(=O)(=O)N(CCc3ccccc3)Cc3ccccc3N3CCN(C(=O)N(C)C)CC3)cc12` [Example F27-S101, 3-methyl-5-(N-(2-(4-(dimethylcarbamoyl)piperazin-1-yl)benzyl)-N-phenethylsulfamoyl)benzofuran-2-carboxylic acid], the melting point fell in the range of 118 to 119 °C. Also, the IC50 in data set [2] is 0.1 to 10 µM. For the same compound, in data set [3], the CC50 at 48 h is > 160 µM. The CC50 at 48 h in data set [4] is > 160 µM.
As to `Cc1c(C(=O)O)oc2ccc(S(=O)(=O)N(CCc3ccccc3)Cc3ccccc3N3CCN(C(=O)c4ccccc4)CC3)cc12` [Example F27-S105, 3-methyl-5-(N-(2-(4-benzoylpiperazin-1-yl)benzyl)-N-phenethylsulfamoyl)benzofuran-2-carboxylic acid], the melting point was in the range of 163 to 164 °C. Besides, in data set [2], the concentration for half-maximal inhibition (IC50) was in the range of 0.1 to 10 µM. The CC50 at 48 h in data set [3] is > 160 µM. Moreover, in data set [4], the CC50 at 48 h was > 160 µM.
Regarding `Cc1ccc(C)c(OCCCC(C)(C)C(=O)NCC(=O)c2ccc(O)cc2)c1` [SIPI-7623, 5-(2,5-dimethylphenoxy)-N-(2-(4-hydroxyphenyl)-2-oxoethyl)-2,2-dimethylpentanamide], in data set [1], the “reduction of the increase in TG level of HepG2 cell induced by oleic acid and palmitate” value is “significantly reduce”; the “reduction of the increase in TC level of HepG2 cell induced by oleic acid and palmitate” value is “significantly reduce”.
Take `C/C=C1\C(=O)C[C@H]2[C@@H]3CCC4=CC(=O)CC[C@]4(C)[C@H]3CC[C@]12C` [Z-GS]: in data set [1], the “reduction of the increase in TG level of HepG2 cell induced by oleic acid and palmitate” value is given as “significantly reduce”; the “reduction of the increase in TC level of HepG2 cell induced by oleic acid and palmitate” value is reported as “significantly reduce”.
